Experimental data: PMC9154793, “Design, synthesis, and biological evaluation of triazole-pyrimidine-methylbenzonitrile derivatives as dual A2A/A2B adenosine receptor antagonists” (Journal of Enzyme Inhibition and Medicinal Chemistry, 2022)
Entries after “also recorded” stand apart in the source; their conditions may differ.

Assays:
PBMCs = assay: T-cell activation assay (IL-2 production in PBMCs, NECA-suppressed, anti-CD3/anti-CD28); type: cell-based; conditions: 10, 100, 1000 nM antagonist with 1000 nM NECA; ELISA after 48 h; Figure 3
Protocol: The effector functions of T cells that express A2 ARs can be evaluated by measuring specific cytokine production[4]^,[9]^,[38]. In this study, the efficiencies of selected antagonists on IL-2 production (T cell activation) were examined. […] However, when the antagonist was added, the concentration of IL-2 was restored, indicating the inhibition effect of NECA was blocked.
Figure 3. The efficiencies of selected compounds for IL-2 production. The efficiencies of selected antagonists on T-cell activation at 10 nM, 100 nM, and 1000 nM were tested in the presence or absence of 1000 nM NECA. The DMSO control was tested in the absence of both antagonists and NECA. The NECA control was tested without antagonists in the presence of 1000 nM NECA.
Cryopreserved PBMCs (Allcells) were thawed and recovered in RPMI1640 medium overnight before being used. And compounds to be tested were diluted with DMSO to 100 folds of working concentrations. Then PBMCs were added to 96-well U bottom plate (2.5 × 10^5 cells per well). To the cells, 2 μl of NECA and 2 μl of each diluted compound (a final concentration of DMSO is 2%) were added. Then, cells were incubated at 37 °C under 5% CO2 for 1 h. Add 100 μl anti-CD3 (2 μg/ml) and anti-CD28 antibody (2 μg/ml) to each well and cells were cultured for 48 h. After 48 h, supernatants were collected and IL-2 concentration was detected by ELISA.

human A2A AR = human A2A AR (Homo sapiens, UniProt P29274); assay: A2A AR radioligand binding assay ([3H]-ZM241385, HEK-293 cell membranes); conditions: hA2A AR, HEK-293 membranes, [3H]-ZM241385; mean ± SEM; read-out: Radioligand binding assays IC50
Protocol: We further tested the IC50 values of compounds 7f, 7i, 17, 22, and AB928 in inhibiting the cAMP production of CHO cells expressing hA2A AR or hA2B AR (Table 2). […] In addition, the competitive binding experiments of compounds 7f, 7i, and AB928 were performed using membrane preparation of HEK-293 cells expressing human A2A AR (Table 3).
The target compounds were tested to evaluate their affinity for the A2A AR on HEK-293 cell membranes expressing human A2A AR. [^3H]-ZM241385 was used as a radioligand. The assay buffer (50 mM Tris-HCl, pH 7.4; 10 mM MgCl2; 1 mM EDTA; 1 μg/ml adenosine deaminase), wash buffer (50 mM Tris-HCl, pH 7.4; 154 mM NaCl), and 0.5% PEI solution were prepared and stored at 4 °C for use. The affinities were tested following the procedure reported by Hu et al[4].

[1] = Metabolic stability in human liver microsomes; type: in vitro ADME
Protocol: The metabolic stability is an important focus for further compound optimisation. Compounds 7f, 7i, and AB928 were chosen to evaluate the stability in rat liver microsomes and human liver microsomes. For the microsomal metabolic experiment, 7-ethoxycoumarin (7-EC) was used as a control. As shown in Table 4 (see Supporting information for raw data), the CLint(liver) of 7-EC in rats and humans was 10.0 and 9.0 ml/min/g liver, respectively, indicating the experimental test system was reliable.
Metabolic stabilities of compounds 7f, 7i, and AB928 in liver microsomes were studied with pooled human (male) liver microsomes solution (20 mg/ml) and male Sprague–Dawley rats pooled liver microsomes solution (20 mg/ml) purchased from Research Institute for Liver Diseases (Shanghai) Co. Ltd. Both liver microsomes solutions (140 μl) were diluted by 3948 μl of water and 280 μl of phosphate buffered saline. The assay procedure: 640 μl of diluted liver microsomes solution was added to a solution of compound working solution (16 μl, 25 μM in DMSO) and the mixed solution was incubated at 37 °C for 5 min. Then 160 μl of NADPH generating system was added and take out 100 μl from the mixed solution was added 200 μl of acetonitrile solution to stop the reaction at the set incubation time (0 min, 10 min, 20 min, 30 min, 40 min, 50 min, and 60 min). All stopped reaction solutions were vortex mixed (3 min) and centrifuged (10,000 rpm, 4 °C for 10 min). Then 50 μl of the supernatant was analysed by UPLC-MS/MS system (details of the analytical method see Supporting information). […]
8. Metabolic stability in human and rat liver microsomes
Metabolic stabilities of compounds 7f, 7i and AB928 in liver microsomes were studied with pooled human (male) liver microsomes solution (20 mg/mL) and male Sprague - Dawley rats pooled liver microsomes solution (20 mg/mL) purchased from Research Institute for Liver Diseases (Shanghai) Co. Ltd. Both liver microsomes solutions (140 μL) were diluted by 3948 μL of water and 280 μL of phosphate buffered saline. The assay procedure: 640 μL of diluted liver microsomes solution was added to a solution of compound working solution (16 μL, 25 μM in DMSO) and the mixed solution was […]
(1 picture or pasted object on this page, not shown here) […]
incubated at 37 ℃ for 5 min. Then 160 μL of NADPH generating system was added and take out 100 μL from the mixed solution was added 200 μL of acetonitrile solution to stop the reaction at the set incubation time (0 min, 10 min, 20 min, 30 min, 40 min, 50 min, and 60 min). All stopped reaction solutions were vortex mixed (3 min) and centrifuged (10000 rpm, 4 ℃ for 10 min). Then 50 μL of the supernatant was analyzed […]
8.2 Chromatography and mass spectrometry conditions
UPLC was performed using an […] UPLC system (Waters, Milford, MA, […]
USA). Separation was achieved on a Waters BEH C18 column(100 mm × 2.1 mm， 1.7 μm) at 40 ℃. The injection volume of the sample solution was 5 μL. The mobile phase consisted of water (0.1% formic acid and ammonium acetate) and acetonitrile solution (20:80, v/v) at a flow rate of 0.4 mL/min within a running time of 6 min. Mass spectrometric analysis was performed on a Waters Xevo TQ-S triple quadrupole instrument using electrospray ionization in positive mode. Quantification was performed using multiple reaction monitoring (MRM) mode to monitor precursor-product ion transitions (Table S1).
Table S1. Conditions of MRM Detection. […]
Table S2. Raw data of metabolic stability in human and rat liver microsomes. […]
(min) Hum Rat Hum Rat Hum Rat Hum Rat
9. Analytical method of pharmacokinetics assay
Animal experiments were performed according to the institutional ethical guidelines on animal care and approved by the Institute Animal Care and Use Committee at Binzhou […]
Female Bal b/c mice (sourced from Jinan Pengyue Experimental Animal Breeding […]

human A2A AR, sequence (P29274 whole entry): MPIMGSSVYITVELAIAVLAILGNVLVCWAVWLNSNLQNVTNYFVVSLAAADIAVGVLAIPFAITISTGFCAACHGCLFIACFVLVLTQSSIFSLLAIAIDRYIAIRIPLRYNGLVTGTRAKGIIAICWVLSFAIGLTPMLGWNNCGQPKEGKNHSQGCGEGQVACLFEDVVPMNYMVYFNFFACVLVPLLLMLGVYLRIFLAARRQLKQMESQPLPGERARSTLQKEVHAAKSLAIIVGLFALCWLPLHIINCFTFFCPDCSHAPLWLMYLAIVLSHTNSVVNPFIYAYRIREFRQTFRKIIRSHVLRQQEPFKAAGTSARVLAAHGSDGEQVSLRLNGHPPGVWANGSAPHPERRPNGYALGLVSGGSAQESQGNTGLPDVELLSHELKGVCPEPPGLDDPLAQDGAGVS

Row | SMILES | IL-2 production (T cell activation) (PBMCs) | IC50 (human A2A AR) [nM] | metabolism on human liver microsomes (in words) [1] | remaining at 10 min, 0.49 µM ([1]; male, human, microsomes) [%] | remaining at 20 min, 0.49 µM ([1]; male, human, microsomes) [%] | remaining at 0.5 h, 0.49 µM ([1]; male, human, microsomes) [%] | remaining at 40 min, 0.49 µM ([1]; male, human, microsomes) [%] | remaining at 50 min, 0.49 µM ([1]; male, human, microsomes) [%] | remaining at 1 h, 0.49 µM ([1]; male, human, microsomes) [%] | CLint(liver) Hum ([1]; human, microsomes) [mL/min/g] | half-life at 0.49 µM ([1]; male, human, microsomes) [h]
1 | Cc1c(C#N)cccc1-c1cc(-c2cn(Cc3cccc(C#N)n3)nn2)nc(N)n1 [Compound 7f, 6-((4-(2-Amino-6-(3-cyano-2-methylphenyl)pyrimidin-4-yl)-1H-1,2,3-triazol-1-yl)methyl)picolinonitrile] | sufficient activities to stimulate IL-2 production | 158 ± 56.4 | hardly metabolised on human liver microsomes | 96.3 | 96.5 | 107 | 98.4 | 102 | 105 |  | 
2 | Cc1c(C#N)cccc1-c1cc(-c2cn(Cc3cccc(C(N)=O)n3)nn2)nc(N)n1 [Compound 7i, 6-((4-(2-Amino-6-(3-cyano-2-methylphenyl)pyrimidin-4-yl)-1H-1,2,3-triazol-1-yl)methyl)picolinamide] | sufficient activities to stimulate IL-2 production; also recorded: better activity than AB928 | 63.6 ± 13 | hardly metabolised on human liver microsomes | 98 | 108 | 116 | 101 | 95 | 98.8 | 0.06 | 19.2
